Among the test systems are COLO 205 colon; SK-MEL-5 melanoma; U251 CNS; T-47D breast; SF-295 CNS; EKVX NSCLC; MDA-MB-231 breast; SN12C renal; SR leukemia; RPMI-8226 leukemia.
Experiment in all cases: NCI anticancer screen, dose series, 48 h

The record followed here is PubChem BioAssay (NCI).

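Following 48 hours of exposure in 96-well plates, responses at five concentrations were used to interpolate endpoints linearly. Here, GI50 denotes the concentration required for 50% inhibition of growth. The concentration for full growth arrest is given as TGI.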 Bounds are passed on as bounds.

In the case of `N#Cc1ccc(C2C3=C(CCCC3=O)OC3=C2C(=O)c2ccccc2C3=O)cc1` (stereo not given), the GI50 in the test on COLO 205 colon is 1.86 µM; in the test on SK-MEL-5 melanoma it was 1.72 µM; in the test with U251 CNS it was 1.7 µM; with T-47D breast, 0.453 µM; in the test on SF-295 CNS, 1.83 µM; in the test on EKVX NSCLC, 1.28 µM. Moreover, the GI50 in the test on MDA-MB-231 breast is 0.447 µM; with SN12C renal, 1.16 µM; in the test with SR leukemia, 3.47 µM; in the test on RPMI-8226 leukemia, 2.3 µM. Also, the TGI in the test with COLO 205 colon stood at 3.63 µM; in the test with SK-MEL-5 melanoma, 3.25 µM; in the test with U251 CNS, 3.16 µM; in the test on T-47D breast, 2.24 µM; in the test on SF-295 CNS it was 3.9 µM; in the test on EKVX NSCLC it was 3.86 µM. Further, the TGI is 1.83 µM in the test on MDA-MB-231 breast, 3.16 µM with SN12C renal, above 100 µM with SR leukemia and 7.12 µM with RPMI-8226 leukemia.

As to `CC(C)[NH-].CC(C)[NH-].O.O.[Cl][Pt+2][Cl]`, the GI50 with COLO 205 colon is 30.1 µM; in the test on SK-MEL-5 melanoma, 21.2 µM; in the test with U251 CNS it was 27.3 µM; in the test on T-47D breast, 50.9 µM; in the test on SF-295 CNS, 42.9 µM; in the test on EKVX NSCLC, 66.7 µM. For the same molecule, the GI50 with MDA-MB-231 breast is 63.8 µM; with SN12C renal, 35.9 µM; in the test with SR leukemia it was 17.8 µM; in the test on RPMI-8226 leukemia it was 38.1 µM. The TGI in the test on COLO 205 colon stood at 98.7 µM; in the test with SK-MEL-5 melanoma, 59.9 µM; with U251 CNS, 107 µM; in the test with T-47D breast it was 381 µM; in the test with SF-295 CNS, 149 µM; in the test on EKVX NSCLC it was 203 µM. Moreover, the TGI was determined as 254 µM with MDA-MB-231 breast, 133 µM in the test on SN12C renal, 53.5 µM with SR leukemia and 281 µM in the test with RPMI-8226 leukemia.

`Clc1ccc(C(c2ccc(Cl)cc2)N2CCNCC2)cc1`: the TGI is 4.28 µM in the test on COLO 205 colon; 3.64 µM in the test on SK-MEL-5 melanoma; 4.2 µM with U251 CNS; 5.25 µM in the test with T-47D breast; 5.74 µM in the test with SF-295 CNS; 10.4 µM in the test on EKVX NSCLC. For the same molecule, the TGI was 4.4 µM with MDA-MB-231 breast, 8.52 µM with SN12C renal, 4.41 µM in the test with SR leukemia and 4.66 µM in the test with RPMI-8226 leukemia.

Take `COc1cc2c(cc1OC)-c1ccc3cc4c(cc3c1N(CCN(C)C)C2)OCO4`: the GI50 in the test on COLO 205 colon was 0.37 µM; with SK-MEL-5 melanoma, 1.39 µM; in the test with U251 CNS, 0.215 µM; in the test on T-47D breast, 0.21 µM; in the test on SF-295 CNS it was 0.4 µM; with EKVX NSCLC, 1.33 µM. Besides, the GI50 with MDA-MB-231 breast was 1.63 µM; in the test with SN12C renal it was 0.35 µM; in the test on SR leukemia it was 0.0524 µM; in the test on RPMI-8226 leukemia, 0.221 µM. Besides, the TGI in the test on COLO 205 colon was 1.92 µM; in the test on SK-MEL-5 melanoma, 3.01 µM; with U251 CNS, 1.23 µM; in the test with T-47D breast it was 3.48 µM; in the test on SF-295 CNS it was 8.28 µM; in the test on EKVX NSCLC, 13.7 µM. Further, the TGI with MDA-MB-231 breast came out at 5.31 µM; in the test with SN12C renal, 4.4 µM; with SR leukemia, 2.63 µM; with RPMI-8226 leukemia, 1.36 µM.

Take `C[C@@H](NC(=O)[C@@H](CC(=O)N1CCC(N2CCCCC2)CC1)N1C(=O)[C@@H](N2C(=O)OC[C@@H]2c2ccccc2)[C@H]1/C=C/c1cccc(Cl)c1)c1ccccc1`: the GI50 in the test with COLO 205 colon is 1.8 µM; in the test with SK-MEL-5 melanoma it was 1.85 µM; in the test on U251 CNS, 2.03 µM; in the test with T-47D breast, 1.9 µM; with SF-295 CNS it was 1.84 µM; in the test on EKVX NSCLC, 3.79 µM. For the same molecule, the GI50 in the test with MDA-MB-231 breast was 1.9 µM; in the test on SN12C renal, 2.9 µM; in the test on SR leukemia, 2.61 µM; with RPMI-8226 leukemia, 2.93 µM. Besides, the TGI amounted to 4.24 µM in the test with COLO 205 colon; 3.34 µM with SK-MEL-5 melanoma; 4.06 µM in the test on U251 CNS; 4.33 µM in the test on T-47D breast; 3.91 µM in the test with SF-295 CNS; 18 µM with EKVX NSCLC. Moreover, the TGI with MDA-MB-231 breast is 3.87 µM; in the test with SN12C renal, 8.85 µM; in the test with SR leukemia it was 7.78 µM; with RPMI-8226 leukemia, 8.32 µM.

Regarding `Cc1ccc(C(=O)/C(=C\c2ccc([N+](=O)[O-])cc2)S(=O)Cc2ccc(F)cc2)cc1` (stereo not given), the GI50 in the test on COLO 205 colon was 1.92 µM; in the test with SK-MEL-5 melanoma it was 1.76 µM; in the test on U251 CNS, 1.66 µM; in the test with T-47D breast, 1.91 µM; in the test on SF-295 CNS it was 1.94 µM; in the test with EKVX NSCLC it was 1.78 µM. The GI50 in the test on MDA-MB-231 breast is 1.83 µM; with SN12C renal, 1.7 µM; with SR leukemia it was 0.703 µM; in the test with RPMI-8226 leukemia it was 1.02 µM. Further, the TGI is 3.76 µM in the test on COLO 205 colon; 3.32 µM with SK-MEL-5 melanoma; 3.22 µM in the test with U251 CNS; 5.51 µM in the test on T-47D breast; 5.05 µM with SF-295 CNS; 3.8 µM in the test with EKVX NSCLC. Further, the TGI with MDA-MB-231 breast amounted to 3.68 µM; in the test with SN12C renal, 3.42 µM; in the test with SR leukemia, 12.6 µM; in the test on RPMI-8226 leukemia, 4.33 µM.
